Measured values taken from patent US12138240B2, “Treatment of cardiac dysfunction” (priority 2017, dated 2024).
Entries after “also recorded” stand apart in the source; their conditions may differ. Like-named read-outs stand apart in the source and are kept apart here.

Key:
male healthy subjects [1] = experiment: linear exposure-heart rate model (NONMEM); parameters: species or system human
Description: (§1) Data analysis proceeded from data structure analysis in S-PLUS to linear/nonlinear mixed effects modeling in NONMEM to develop the exposure-QTc relationship for ANAVEX 2-73 and its active metabolite ANAVEX 19-144. The correction method used for QT interval was the Fridericia's correction. The bootstrap was used to determine the reliability/stability of the exposure-QTc models developed. This was necessary to determine if the modeling results obtained with data from the 17 subjects would be applicable to the population at large, given the sample size. Exposure-heart rate and exposure-change from baseline QTc, and exposure-placebo corrected QTc relationship models were developed for the elucidation of any exposure-QTc relationship.
Concentration-QTc modeling was performed with the software NONMEM v7.3 (Icon Development Solutions, Ellicott City, MD) and graphical analysis, diagnostics plots, and supporting analyses using S Plus v8.2 (TIBCO Software, Boston, MA) and the R package.
Further modeling characterizes the exposure-heart rate relationship. […] for the model were ANAVEX 2-73 and ANAVEX 19-144 concentrations, and time. The baseline heart rate was also estimated. The best model developed to explain the exposure-heart rate relationship included all three variables. Again, ANAVEX 2-73 concentration by itself was not initially biologically QT active, but became active as metabolized to A19-144 in the model. At about 4 to 8 hours post administration A19-144 peaks and surpasses A2-73 at about 8 hours post administration. […] The metabolism of A2-73 to A19-144 modifies this effect. […] It is important to note the upward and negative inflexions in the parent compound and the active metabolite in the final model, respectively, are not indicative of model misspecification but are due to the sensitivity of smoothing loess regression (red line in FIG. 17) to outlying observations in the y-axis. The final model is given below: HRij=56.5−0.106*Parent+0.369*Metabolite+0.153*Time where HRij is subject specific heart rate, Parent refers to ANAVEX 2-73, and Metabolite is for ANAVEX 19-144.
Observed and unlikely to be observed concentrations of the parent drug and metabolite are used to predict heart rate, given the parameter estimates obtained with the exposure-heart rate model developed. […] Thus, the heart rate upon treatment with ANAVEX 2-73 is predicted to be below 75 beats/min.

male healthy subjects [2] = tested on: male healthy subjects; parameters: species or system human; settings: in vivo
Method: (§2) Seventeen subjects contributed ECG data to the analysis dataset. The study was randomized single dose escalating phase I first-in-human study designed to investigate the safety and tolerability, and pharmacokinetics of ascending oral doses of ANAVEX 2-73 in male healthy subjects. It was double-blind and placebo-controlled within each dosage step—a two cohort study with alternating single dose escalation performed in male healthy subjects. Subjects were administered 10, 30, 40, 50, or 60 mg of ANAVEX 2-73 orally with a 4-week washout between doses. Sampling for drug and ECG was from predose to 48 hr. Note that Placebo-adjusted (delta-delta) change in QTcF is represented as ΔΔQTcF.
Subjects provided time-matched exposure-ECG data for analysis. For the exposure-QTc analysis, data obtained after the administration of doses greater than 1 mg were used. […] However, ECG data from the administration of the 1 mg dose were included in the categorical and outlier analysis.
as §1
In addition, categorical summaries of the ECG data were generated using the ICH E14 guidance-defined categories of QTc interval duration as well as change from baseline.
A protocol presented herein was a single ascending dose (SAD) phase I first-in-human study designed to investigate the safety and tolerability, and pharmacokinetics of ascending oral doses of ANAVEX 2-73 in male healthy subjects. The study was a randomized, double-blind, and placebo-controlled within each dosage step. It was a two cohort study with alternating single dose escalation performed in male healthy subjects. The subjects were divided into two cohorts of 8 subjects each—Cohort A (n=8), and Cohort B (n=8). However, 17 evaluable subjects were studied in a 8:9 ratio in cohorts A and B, respectively. The study comprised repeated treatment periods with at least 4 weeks of intermediary washout periods.
Per study protocol, triplicate 12-lead ECGs safety recordings were obtained at the following times: Day 1 at T0/pre-dose (3 baseline ECGs), T+0.25 h (15 min), T+0.5 h (30 min), T+1 h, T+2 h, T+4 h, T+8 h and T+12 h, on Day 2 at T+24 h, T+36 h, and on Day 3 at T+48 h. ECGs were recorded at each PK sampling time (i.e., 0.25, 0.5, 1, 2, 3, 4, 6, 8, 24, 36, and 48 hours after initiation of treatment). Thus, ECG recordings were time-matched with PK sampling.
ECG metrics evaluated included the heart rate (HR), the duration of QT interval, and the heart rate-corrected QT interval according to Fridericia's formula (QTcF). Change of QTcF from baseline (dQTcF), and placebo corrected QTcF (ΔΔQTcF) were generated from the data and used for the analysis.
Baseline ECG was defined as pre-dose baseline on each dosing occasion. Given the four weeks washout between dosing, the pre-dose baseline ECG was used as the baseline ECG for the particular dose/dosing occasion. A change from baseline variable for QTc interval (ΔQTcF) was calculated using pre-dose baseline.
ΔΔQTcF data was a single dose ascending study. As such not all subjects were administered placebo in each of the study periods. Only nine subjects were administered placebo in the course of the study. Consequently, it was not possible to make subject specific placebo correction. […]

[3] = phase I single ascending dose study, plasma concentrations of ANAVEX 2-73 and metabolite ANAVEX 19-144; type: in vivo, human; settings: for plasma concentration of the labelled analyte: 1 mg ANAVEX 2-73 oral dose; for concentration at 24 h / Cmax: human, plasma; for concentration at 24 h: one subject, 40 mg ANAVEX 2-73 oral, 24 hr time point, read-out: plasma concentration of the labelled analyte; for Cmax: male
Method: as §2
Blood samples for ANAVEX 2-73 and metabolite ANAVEX 19-144 plasma concentration determination were drawn on Day 1 at time zero, T0, (before drug administration), T+0.25 h (15 min), T+0.5 h (30 min), T+1 h, T+1.5 h, T+2 h, T+3 h, T+3.5 h, T+4 h, T+6 h, T+8 h and T+12 h, on Day 2 at T+24 h and T+36 h, and on Day 3 at T+48 h.
The PK variables employed in the analysis were the patient-, regimen- and time-specific observed plasma concentration of ANAVEX 2-73 and ANAVEX 19-144.
The dataset comprised observed ANAVEX 2-73 and ANAVEX 19-144 plasma concentrations that were direct matches in time with QT interval measurements. The analysis variable of interest was the QT interval duration corrected for RR interval duration according to Fridericia's formula (i.e., QTcF), HR, and change from baseline QT interval duration corrected for RR interval duration according to Fridericia's formula (ΔQTcF or dQTcF). Baseline is defined as the mean of any and all values immediately obtained prior to ANAVEX 2-73 administration.

[4] = tested on: muscarinic acetylcholine receptors; settings: stated as 'is believed to bind'; cited from earlier work

With `CN(C)CC1CCOC1(c1ccccc1)c1ccccc1.Cl` (stereo not drawn) [ANAVEX 2-73, 1-(2,2-diphenyltetrahydrofuran-3-yl)-N,N-dimethylmethanamine hydrochloride] the “Slope on parent, exposure-heart rate model estimate” value (male healthy subjects [1]) was −0.106 beats/min/ng/mL, the “initial effects on heart rate” value (male healthy subjects [1]) was “opposite initial effects on heart rate” and the QT interval prolongation (male healthy subjects [2]) was “does not prolong QT interval”. For the same compound, the “effect on dQTcF (exposure-dQTcF characterization)” value (male healthy subjects [2]) was “did not show any effect”, the “graphical relationship of paired concentrations with QTcF measurements” value (male healthy subjects [2]) was “minimal positive trend” and the “relationship with ΔΔQTcF (placebo-adjusted change in QTcF)” value (male healthy subjects [2]) was “no relationship”. The “dQTcF (change in QTcF from baseline), any subject” value (male healthy subjects [2]; male, human) was no more than 30 ms, the “plasma concentration of the labelled analyte” value [3] was “not quantifiable at most of the sampling times beyond two to four hours after dosing” and the concentration at 24 h [3] was 2.23 ng/mL. The Cmax ([3]; oral, footnote a, read-out: ANAVEX 2-73 Concentration, observed Cmax from the QTc analysis dataset) was 46.2 ng/mL.
In the case of `CNCC1CCOC1(c1ccccc1)c1ccccc1.Cl` (stereo not drawn) [ANAVEX 19-144, 1-(2,2-diphenyltetrahydrofuran-3-yl)-N-methylmethanamine hydrochloride], the “Slope on metabolite, exposure-heart rate model estimate” value (male healthy subjects [1]) is listed as 0.369 beats/min/ng/mL, the “initial effects on heart rate” value (male healthy subjects [1]) is listed as “opposite initial effects on heart rate” and the “affinity for muscarinic acetylcholine receptors” value [4] is listed as “low micromolar range”. For the same compound, the anti-arrhythmic activity (male healthy subjects [2]) was “anti-arrhythmic”, the “effect on dQTcF (exposure-dQTcF characterization)” value (male healthy subjects [2]) was “did not show any effect” and the “graphical relationship of paired concentrations with QTcF measurements” value (male healthy subjects [2]) was “slight minimal upward trend from baseline followed by a slight negative trend”. For the same compound, the “relationship with ΔΔQTcF (placebo-adjusted change in QTcF)” value (male healthy subjects [2]) was “no relationship”, the “plasma concentration of the labelled analyte” value ([3]; hydrochloride) was “below the limit of detection; also recorded: not quantifiable” and the “ANAVEX 19-144 Concentration, observed Cmax from the QTc analysis dataset” value ([3]; footnote a, after oral ANAVEX 2-73, hydrochloride) was 23.96 ^a ng/mL. For the same compound, the concentration at 24 h [3] was 3.33 ng/mL and the Cmax ([3]; footnote a, after oral ANAVEX 2-73, read-out: ANAVEX 19-144 Concentration, observed Cmax from the QTc analysis dataset) was 24 ng/mL.
